# Data taken from patent publication US6365166B2, “Gel formulations for topical drug delivery” (priority 1996, dated 2002).
# Where two headings read alike, the source gives them in different places.
# Assays:
# [1] = Solubility of the drug in gel formulations of the invention; format: physicochemical
# [2] = tested on: interferon and tumor necrosis factor; details: mice, oral administration; cited from earlier work
# [3] = tested on: interferon and tumor necrosis factor; details: rats, oral administration; cited from earlier work
# [4] = tested on: human peripheral blood mononuclear cells; details: cultures of human peripheral blood mononuclear cells; cited from earlier work
# herpes simplex virus = details: subcutaneously, dermally or intravaginally 24 hours before infection; cited from earlier work
structure (smiles),measurement,setting,value
"CCOCc1nc2c(N)nc3ccccc3c2n1CC(C)(C)O [4-amino-2-ethoxymethyl-α,α-dimethyl-1H-imidazo[4,5-c]quinoline-1-ethanol]",solubility in formulations of the invention,[1],sufficiently soluble
same,solubility in formulations of the invention,"[1]; listed as 4-Amino-2-ethoxymethyl-α,α-dimethyl-1H-imidazo[4,5-c]quinoline-1-ethanol",substantial solubility
same,induction of interferon and tumor necrosis factor,[2],induce interferon and tumor necrosis factor
same,induction of interferon and tumor necrosis factor,[3],induce interferon and tumor necrosis factor
same,cytokine induction,[4],"induce interferon-α, tumor necrosis factor, interleukin-1α, interleukin-1β, interleukin-6 and interleukin-8"
same,antiviral activity,herpes simplex virus,antiviral activity
